Assay results as given in patent publication US11324737B1, “Modulating expression level of a gene encoding a heat shock protein by treating a human subject with a nitroxide” (priority 2021, dated 2022).

Columns and labels:
[1] = test system: HSP90; test: Effects of Tempol on gene expression in cardiac tissue of mice, chip-based microarray; assay type: in vivo
Description: To assess the effects of Tempol on gene expression, Tempol was administered to experimental mice at a dose of 5 mg/g of food from 14 months to 31 months after birth. Mice receiving the same food without the addition of Tempol were used as a negative control. At the age of 31 months, the experimental animals were sacrificed and the hearts were surgically removed. The expression of a broad spectrum of genes in the cardiac tissue was assessed using chip-based microarray technology. Such chips are well known in the art and are widely used to assess gene expression.

[2] = test system: HSP90; test: Treating a human subject with Tempol, serum level of HSP90 following treatment; assay type: in vivo; conditions: 2000 mg per day for 180 days
Description: (§1) A 70-kilogram human subject over the age of 65 is identified as having, or known to have, or suspected of having an increased expression level of HSP90. The human subject is administered a dose of 2000 mg of Tempol (or another nitroxide antioxidant) per day for 180 days. This may be administered in a single dose, or may be administered as a number of smaller doses over a 24-hour period: for example, four 500-mg doses at […]. Following treatment, the serum level of HSP90, is decreased.
as §1, with “subject” for “subject over the age of 65”
as §1, with “65 and having a cardiovascular disease” for “65”, “for an increased expression level of HSP90. Or a 70-kilogram human subject over the age of 65 is” for “as having, or”, “have a cardiovascular disease and/or” for “have, or suspected of having an”
as §1, with “at risk” for “over the age”, “developing colorectal cancer” for “65”, “for increased expression level of HSP90. Or a 70-kilogram human subject is” for “as having, or”, “be at risk” for “have, or suspected”, “developing colorectal cancer and/or have” for “having an”, “decreased. […]” for “decreased.”
A 70-kilogram human subject having an infection (e.g., a bacterial, fungal, or viral infection) is identified for increased expression level of HSP90. Or a 70-kilogram human subject is known to have an infection and/or have increased expression level of HSP90. The human subject is administered a dose of 2000 mg of Tempol (or another nitroxide antioxidant) per day for 180 days. This may be administered in a single dose, or may be administered as a number of smaller doses over a 24-hour period: for example, four 500-mg doses at […]. Following treatment, the serum level of HSP90, is decreased.

Structure (SMILES): CC1(C)CC(O)CC(C)(C)N1[O] [Tempol, 4-hydroxy-2,2,6,6-tetramethylpiperidine-1-oxyl]
- Fold change (expression of HSP90 in cardiac tissue after Tempol administration) ([1]; Tempol 5 mg/g of food from 14 months to 31 months after birth, vs same food without Tempol, cardiac tissue at 31 months): −2.4
- HSP90 expression in cardiac tissue ([1]; Tempol 5 mg/g of food from 14 to 31 months after birth, cardiac tissue, result in words): statistically significant decrease in expression
- serum level of HSP90 following treatment ([2]; Example 2: 70-kilogram human subject over the age of 65 with increased expression level of HSP90): decreased
- serum level of HSP90 following treatment ([2]; Example 3: 70-kilogram human subject with increased expression level of HSP90): decreased
- serum level of HSP90 following treatment ([2]; Example 4: 70-kilogram human subject over the age of 65 having a cardiovascular disease): decreased
- serum level of HSP90 following treatment ([2]; Example 5: 70-kilogram human subject at risk of developing colorectal cancer): decreased
- serum level of HSP90 following treatment ([2]; Example 6: 70-kilogram human subject at risk of developing an autoimmune disease (e.g., rheumatoid arthritis)): decreased
- serum level of HSP90 following treatment ([2]; Example 7: 70-kilogram human subject at risk of developing a condition due to aging): decreased
- serum level of HSP90 following treatment ([2]; Example 8: 70-kilogram human subject at risk of developing a neurodegenerative disease (e.g., Parkinson's Disease)): decreased
- serum level of HSP90 following treatment ([2]; Example 9: 70-kilogram human subject having an infection (bacterial, fungal, or viral)): decreased
